For test [1], the system named is human epidermal keratinocytes (HEKa). Put plainly: In vitro cell adhesion of keratinocytes to peptide-coated microwells (calcein fluorescence). In kind it is cell-based. The following applies: for cell adhesion of keratinocytes: HEKa, peptide-coated microwells 0.5-250 μg/ml, 4 concentrations, 2 hours. As to the method:
1-Y and the comparative evaluation between them.
The cell cultures used in the following example are human epidermal keratinocytes (HEKa) in the presence of specific growth factors of keratinocytes.
First, 96 microwells are placed in a plate, they are coated with 50 μL of a peptide of general formula X-SEQ ID NO.1-Y (0.5-250 μg/ml per microwell) in distilled water and dried overnight at room temperature.
On the other hand, control assays are carried out with microwells coated with 40 μM of BSA (bovine serum albumin) so as to evaluate non-specific cell adhesion.
All the microwells have been washed with 200 μL of PBS (phosphate buffered saline) and blocked for 1 hour with 1% BSA in PBS at 37° C.
Trypsin was added to human cutaneous keratinocytes, and they were marked for 30 minutes at 37° C. in calcein-AM at a concentration of 5 μM and they were finally washed three times in Epilife® medium.
The marked cells (4.5×10^4/microwell) were added to the plate previously coated with the X-SEQ ID No. 1-Y peptide and were incubated for 2 hours at 37° C. in an atmosphere humidified with 5% CO2.
The cell adhesion was assessed by the measurement of calcein fluorescence before and after the washing.
The percentage of cell adhesion was determined by dividing the fluorescence of adhered cells by the total fluorescence of cells added to each microwell.
The cell adhesion promoted by the X-SEQ ID No. 1-Y peptides was calculated with respect to the non-specific adhesion of the cells to BSA.

For the next test, the system named is α6 integrin. Put plainly: Immunostaining of α6 integrin expression in human fibroblasts and keratinocytes. In kind it is cell-based. An excerpt:
(§1) Immunostaining assays have been carried out in human fibroblasts and keratinocytes in order to determine if SEQ ID No. 2 has the ability to enhance the expression of α6 integrin and laminin V (FIGS. 2, 3, 4, and 5).
(§2) The assay uses a primary (monoclonal) antibody binding to the protein which is intended to be detected (integrin or laminin), and a secondary (polyclonal) antibody binding to the complex between the protein and the primary antibody. The secondary antibody is coupled to a fluorescent compound (FITC-Fluorescein Isothiocyanate).
(§3) FITC is illuminated with filtered light at 495 nm (absorption wavelength) and the light emitted by the dye is detected at 528 nm (emission wavelength).

For another test, the system named is laminin V. Put plainly: Immunostaining of laminin V expression in human fibroblasts and keratinocytes. In kind it is cell-based. Particulars: human fibroblasts, immunofluorescence, vs control without peptide.
From the text: as §1, §2, §3

In the next test the test system is beta 1 integrin. Put plainly: Immunostaining, production of beta 1 integrin. In kind it is cell-based, human.
For a further test, the system named is human fibroblasts. The test is described as follows: Cell adhesion in in vitro fibroblast culture. The class given is cell-based. The following applies: vs untreated. An excerpt: The adhesion process at a cellular level has been determined by means of a in vitro fibroblast culture in the second embodiment assay.
FIGS. 6 and 7 show a uniform coating of the assay microwell and the growth and distribution of the fibroblasts that are more related with cell adhesion than with cell proliferation.

Entries after “also recorded” stand apart in the source; their conditions may differ. No end group written: not given here. *: point of attachment. Palmitoyl = CCCCCCCCCCCCCCCC(=O)*

Turning to “SEQ ID No. 1: peptide of general formula I in which X is hydrogen and Y is hydroxyl (H-IKVAV-OH; listed as Homo sapiens)”, the “cell adhesion of keratinocytes” value in test [1] is reported as “Stimulation of keratinocyte adhesion”; in test [1] (listed as SEQ ID NO. 1), “increase of cell adhesion”.
For “SEQ ID No. 2-amino: variant of SEQ ID No. 2 with Y amino (SEQ ID NO. 2-NH2) (SIKVAV-NH2; listed as Homo sapiens)”, in test [1], the “cell adhesion of keratinocytes” value was “increase of cell adhesion”. For the same substance, the “keratinocyte cell adhesion, SEQ ID No. 2 vs SEQ ID No. 2-amino (FIG. 10)” value in test [1] (small doses (0.5 μg/ml)) is given as “greater”.
On to “SEQ ID No. 2: peptide of general formula I in which X is serine and Y is hydroxyl; laminin-derived (SIKVAV-OH; listed as Homo sapiens)”, for which the “expression of α6 integrin” value with α6 integrin (human fibroblasts, immunofluorescence, vs control without peptide) was “increase of the expression; also recorded: significant increase”; in the test with α6 integrin (human fibroblasts, immunofluorescence, vs control without peptide, listed as SEQ ID NO.2) it was “stimulation of the expression”; in the test on α6 integrin (keratinocytes, immunostaining), “not in keratinocytes”. Further, the “expression of laminin V” value in the test with laminin V is “increase of the expression; also recorded: significant increase”; in the test with laminin V (listed as SEQ ID NO.2), “stimulation of the expression”. For the same substance, in the test with beta 1 integrin, the “production of beta 1 integrin” value is “No variation”. For the same substance, in the test on human fibroblasts, the “cell adhesion in human fibroblasts” value was “promoting cell adhesion and migration”. The “cell adhesion of keratinocytes” value was “Stimulation of keratinocyte adhesion” in test [1], “increase of cell adhesion” in test [1] (listed as SEQ ID NO. 2) and “increase of cell adhesion” in test [1] (listed as SEQ ID NO.2). The “keratinocyte cell adhesion, comparison between peptides (FIG. 9)” value in test [1] (extrapolated results of FIG. 9, SEQ ID No. 2 vs SEQ ID No. 1 vs Pal-SEQ ID No. 1) was “greater adhesion”. Further, the “keratinocyte cell adhesion, SEQ ID No. 2 vs SEQ ID No. 2-amino (FIG. 10)” value in test [1] (larger doses) is recorded as “greater adhesion”.
Turning to “Pal-SEQ ID No. 1: X-SEQ ID No. 1-Y peptide where X is the palmitoyl radical (Palmitoyl-IKVAV; listed as Homo sapiens)”, the “cell adhesion of keratinocytes” value in test [1] was “Stimulation of keratinocyte adhesion”; in test [1] (listed as Pal-SEQ ID NO.1), “increase of cell adhesion”.

The values above are taken from US7943156B2, “Use of peptides of general formula I X-SEQ ID No.1-Y in the preparation of cosmetic compositions which are intended to improve the firmness of the skin by increasing cell adhesion” (Lipotec, S.A., priority 2004, dated 2011).
